In patent US10391095B2, “DNA-PK inhibitors” (Vertex Pharmaceuticals Incorporated, priority 2012, dated 2019):

Target: DNA-PK (Homo sapiens, UniProt P78527)
Assay: DNA-PK inhibition assay (radiometric, 33P-ATP)
Assay type: biochemical
Settings: 100 μM ATP, competitive tight-binding fit
Description: Compounds were screened for their ability to inhibit DNA-PK kinase using a standard radiometric assay. Briefly, in this kinase assay the transfer of the terminal ^33P-phosphate in ^33P-ATP to a peptide substrate is interrogated. The assay was carried out in 384-well plates to a final volume of 50 μL per well containing approximately 6 nM DNA-PK, 50 mM HEPES (pH 7.5), 10 mM MgCl2, 25 mM NaCl, 0.01% BSA, 1 mM DTT, 10 μg/mL sheared double-stranded DNA (obtained from Sigma), 0.8 mg/mL DNA-PK peptide ([…] obtained from American Peptide), and 100 μM ATP. Accordingly, compounds of the invention were dissolved in DMSO to make 10 mM initial stock solutions. Serial dilutions in DMSO were then made to obtain the final solutions for the assay. A 0.75 μL aliquot of DMSO or inhibitor in DMSO was added to each well, followed by the addition of ATP substrate solution containing ^33P-ATP (obtained from Perkin Elmer). The reaction was started by the addition of DNA-PK, peptide and ds-DNA. After 45 min, the reaction was quenched with 25 μL of 5% phosphoric acid. The reaction mixture was transferred to MultiScreen HTS 384-well PH plates (obtained from Millipore), allowed to bind for one hour, and washed three times with 1% phosphoric acid. Following the addition of 50 μL of Ultima Gold™ high efficiency scintillant (obtained from Perkin Elmer), the samples were counted in a Packard TopCount NXT Microplate Scintillation and Luminescence Counter (Packard BioScience). The Ki values were calculated using Microsoft Excel Solver macros to fit the data to the kinetic model for competitive tight-binding inhibition.

Ki, < 30 nM:
COc1ccccc1[C@H](C)CNc1cc(-c2cnc3c(cnn3CCO)c2)ncn1 [Compound 127]
CNC(=O)c1ccc(-c2cc(NC[C@@H](C)c3cccc4c(C(=O)NC)ccnc34)ncn2)cc1F [Compound 807]
C[C@H](CNc1cc(-c2ccc(N3CCN(C)CC3)nc2)ncn1)c1ccccc1OC1CC1 [Compound 114]
Cc1ccc(-c2cc(NCC(C)c3cccnc3OC3CCC3)ncn2)cn1 (stereo not drawn) [Compound 247]
CCS(=O)(=O)c1ccc(-c2cc(NC[C@@H](C)c3cccc4c(C(=O)NC)ccnc34)ncn2)cc1 [Compound 676]
CNC(=O)c1ccnc2c([C@H](C)CNc3cc(-c4ccnc(C)c4)ncn3)cccc12 [Compound 771]
CNC(=O)c1ccnc2c([C@H](C)CNc3cc(-c4ccc(C(=O)O)nc4)ncn3)cccc12 [Compound 673]
CNC(=O)c1ccnc2c([C@H](C)CNc3cc(-c4ccc(N(C)CCC(C)(C)O)nc4)ncn3)cccc12 [Compound 717]
Cc1ccc(-c2cc(NCCc3cccc4c3OCC4)ncn2)cn1 [Compound 60]
Cc1ccc(-c2cc(NCC(C)c3cccc4cc(F)cnc34)ncn2)cn1 (stereo not drawn) [Compound 346]
CNC(=O)c1ccc(C(C)CNc2cc(-c3ccc(OC)nc3)ncn2)c(OC)c1 (stereo not drawn) [Compound 320]
CNC(=O)c1ccc([C@H](C)CNc2cc(-c3ccc(N(C)C(C)C4CC4)nc3)ncn2)c(OC)c1 (stereo partly drawn) [Compound 341]
CNC(=O)c1ccnc2c([C@H](C)CNc3cc(-c4ccc(C#N)c(F)c4)ncn3)cccc12 [Compound 871]
Cc1ccc(-c2cc(NCC(C)c3cncc4cccnc34)ncn2)cn1 (stereo not drawn) [Compound 414]
CNC(=O)c1ccc([C@H](C)CNc2cc(-c3ccc4scnc4c3)ncn2)c(OC)c1 [Compound 316]
Cc1ccc(-c2cc(NCC(C)c3ccc(F)c4cccnc34)ncn2)cn1 (stereo not drawn) [Compound 303]
COc1cc(C(N)=O)ccc1C(C)CNc1cc(-c2ccc(N3CCN(C(C)=O)CC3)nc2)ncn1 (stereo not drawn) [Compound 131]
COc1ccccc1[C@H](C)CNc1cc(-c2ccc(NC(C)CO)nc2)ncn1 (single isomer, unassigned) [Compound 126]
COc1ncc(-c2cc(NC[C@@H](C)c3ccnc4c3OCC4)ncn2)cc1N [Compound 589]
Cc1cc([C@H](C)CNc2cc(-c3cnc4c(cnn4CCO)c3)ncn2)c2c(n1)CCO2 [Compound 505]
C[C@H](CNc1cc(-c2cnc3c(cnn3CC(O)CO)c2)ncn1)c1ccnc2c1OCC2 (single isomer, unassigned) [Compound 436]
[2H]c1nc(C)nc([2H])c1-c1cc(NC[C@@H](C)c2cccc3c(C(=O)NC)c(F)cnc23)ncn1 [Compound 862]
CNC(=O)c1c(F)cnc2c([C@H](C)CNc3cc(-c4ccc(C(C)C)nc4)ncn3)cccc12 [Compound 858]
CNC(=O)c1ccnc2c([C@H](C)CNc3cc(-c4cnc(OC(C)C)nc4)ncn3)ccc(F)c12 [Compound 983]
CNC(=O)c1ccnc2c([C@H](C)CNc3cc(-c4ccc(C(=O)OC)s4)ncn3)cccc12 [Compound 774]
CNC(=O)c1ccc(C(C)CNc2cc(-c3ccc4c(cnn4CCO)c3C)ncn2)c(OC)c1 (stereo not drawn) [Compound 277]
CNC(=O)c1ccnc2c([C@H](C)CNc3cc(-c4ccc(NS(C)(=O)=O)cc4)ncn3)cccc12 [Compound 680]
CNC(=O)c1ccnc2c([C@H](C)CNc3cc(-c4ccc(OCC5CC5)nc4)ncn3)ccc(F)c12 [Compound 904]
CNC(=O)c1ccnc2c([C@H](C)CNc3cc(-c4cnc(NC)nc4)ncn3)cccc12 [Compound 579]
CNC(=O)c1ccnc2c([C@H](C)CNc3cc(-c4ccc(N5CCOCC5)nc4)ncn3)cccc12 [Compound 641]
CNC(=O)c1ccc([C@H](C)CNc2cc(-c3ccc4c(c3)CC(=O)N4)ncn2)c(OC)c1 [Compound 310]
CNC(=O)c1ccnc2c([C@H](C)CNc3cc(-c4cnc(C#N)c(OC)c4)ncn3)cccc12 [Compound 924]
CCCn1ccc2cc(-c3cc(NCCc4ccccc4OC)ncn3)cnc21 [Compound 36]
CNC(=O)c1ccc([C@H](C)CNc2cc(-c3cnc4c(cnn4CC(C)(C)O)c3)ncn2)c(OC)c1 [Compound 285]
COc1ccccc1[C@H](C)CNc1cc(-c2ccnc(Nc3nn[nH]n3)c2)ncn1 [Compound 211]
CNC(=O)c1c(F)cnc2c([C@H](C)CNc3cc(-c4ccc(C#N)nc4)ncn3)cccc12 [Compound 901]
COc1ccccc1[C@H](C)CNc1cc(-c2ccc(NCC3(O)CC3)nc2)ncn1 [Compound 204]
CNC(=O)c1ccc(-c2cc(NC[C@@H](C)c3cccc4c(C(=O)NC)ccnc34)ncn2)s1 [Compound 776]
COc1ccccc1CCNc1cc(-c2cnc3c(ccn3C)c2)ncn1 [Compound 34]
CC(CNc1cc(-c2ccc(N3CCN(C)CC3)nc2)ncn1)c1ccccc1OC1COC1 (stereo not drawn) [Compound 102]
CC(CNc1cc(-c2cnc3c(cnn3C3COC3)c2)ncn1)c1cncc2c1OCC2 (stereo not drawn) [Compound 420]
CNC(=O)c1ccc(C(C)CNc2cc(-c3ccc(N4CCN(C(C)=O)CC4)nc3)ncn2)c(OC)c1 (stereo not drawn) [Compound 130]
COCCn1ncc2cc(-c3cc(NCC(C)c4ccc(C(=O)NCC(F)(F)F)cc4OC)ncn3)cnc21 (stereo not drawn) [Compound 220]
CNC(=O)c1ccnc2c([C@H](C)CNc3cc(-c4ccc(N5CCN(CC(F)F)CC5)nc4)ncn3)cccc12 [Compound 756]
C[C@H](CNc1cc(-c2ccc(C(=O)NCCC#N)cc2)ncn1)c1ccnc2c1OCC2 [Compound 432]
CNC(=O)c1ccnc2c([C@H](C)CNc3cc(N4CNC(=O)C4)ncn3)cccc12 [Compound 797]
CNC(=O)c1ccnc2c([C@H](C)CNc3cc(-c4ccc5ncccc5c4)ncn3)cccc12 [Compound 582]
CC(CNc1cc(-c2cnc3c(cnn3CCO)c2)ncn1)c1ccnc2ccoc12 (stereo not drawn) [Compound 429]
COc1cnc(N)cc1[C@H](C)CNc1cc(-c2ccc(C)nc2)ncn1 [Compound 630]
CCOC(=O)c1cn2c(n1)CN(c1cc(NC[C@@H](C)c3cccc4c(C(=O)NC)ccnc34)ncn1)CC2 [Compound 794]
COc1sccc1C(C)CNc1cc(-c2ccc(C)nc2)ncn1 (stereo not drawn) [Compound 257]
COc1ccccc1[C@H](C)CNc1cc(-c2ccc(C)nc2)ncn1 [Compound 55]
Cc1ccc(-c2cc(NCC(C)c3cccc4c3OCC(=O)N4)ncn2)cn1 (stereo not drawn) [Compound 435]
CNC(=O)c1ccc([C@H](C)CNc2cc(-c3ccc4c(cnn4C4COC4)c3)ncn2)c(OC)c1 [Compound 243]
Cc1ccc2cc(-c3cc(NC[C@@H](C)c4ccnc5c4OCCO5)ncn3)ccc2n1 [Compound 555]
CC(=O)N1CCOc2c([C@H](C)CNc3cc(-c4ccc(C)nc4)ncn3)cccc21 [Compound 504]
Cc1ncc(-c2cc(NC[C@@H](C)c3ccnc4c3OCC4)ncn2)cn1 [Compound 416]
COc1ccccc1[C@H](C)CNc1cc(-c2ccc(N3CCCC3)nc2)ncn1 [Compound 84]
CC(CNc1cc(-c2cnc3c(cnn3CCO)c2)ncn1)c1cc(F)c(F)cc1OC1CCC1 (stereo not drawn) [Compound 382]
COc1cc(C(=O)NOCc2ccccc2)ccc1C(C)CNc1cc(-c2ccc(C)nc2)ncn1 (stereo not drawn) [Compound 222]
CNC(=O)c1ccc(C(C)CNc2cc(-c3ccc(CCO)cc3)ncn2)c(OC)c1 (stereo not drawn) [Compound 339]
CNC(=O)c1ccnc2c([C@H](C)CNc3cc(-c4cnc(N5CCOCC5)c(C)c4)ncn3)cccc12 [Compound 880]
CNC(=O)c1ccnc2c([C@H](C)CNc3cc(-c4ccc(OC(C)C)nc4)ncn3)cccc12 [Compound 959]
